Experimental data as given in patent publication US10660876B2, “Amino compounds for treatment of medical disorders” (Achillion Pharmaceuticals, Inc., priority 2015, dated 2020).

Target: Human Factor D (Homo sapiens (Human), UniProt P00746)
Assay: Human Factor D Assay
Assay type: biochemical
Conditions: Table 1; Factor D purified from human serum, 80 nM, substrate Z-L-Lys-SBzl; read-out: IC50
Method: Example 12. Human Factor D Assay
Human Factor D (purified from human serum, Complement Technology, Inc.) at 80 nM final concentration is incubated with test compound at various concentrations for 5 minutes at room temperature in 50 mM Tris, 1M NaCl, pH 7.5. A synthetic substrate Z-L-Lys-SBzl and DTNB (Ellman's reagent) are added to final concentrations of 100 μM each. Absorbance at 405 nm (A405) is recorded at 30 second intervals for 30 minutes using a microplate spectrophotometer. IC50 values are calculated by nonlinear regression of complement Factor D reaction rates as a function of test compound concentration.

Sequence of Human Factor D (P00746 26-253): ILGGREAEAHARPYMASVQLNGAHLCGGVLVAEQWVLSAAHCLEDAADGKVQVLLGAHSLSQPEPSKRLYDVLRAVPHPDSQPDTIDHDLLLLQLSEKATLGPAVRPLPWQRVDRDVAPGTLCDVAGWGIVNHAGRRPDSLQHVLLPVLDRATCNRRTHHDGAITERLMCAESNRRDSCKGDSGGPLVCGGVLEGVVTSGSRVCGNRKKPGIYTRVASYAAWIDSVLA

Structure (SMILES)	IC50 [µM]
CC(=O)c1cn(CC(=O)N2C[C@H](F)C[C@H]2C(=O)NC2CCCN(c3cnn(C)c3)C2)c2ccc(Nc3cncnc3)cc12 (stereo partly drawn) [Compound 42, (2S,4R)-1-(2-(3-acetyl-5-(pyrimidin-5-ylamino)-1H-indol-1-yl)acetyl)-4-fluoro-N-(1-(1-methyl-1H-pyrazol-4-yl)piperidin-3-yl)pyrrolidine-2-carboxamide]	< 1
CC(=O)c1cn(CC(=O)N2C[C@H](F)C[C@H]2C(=O)NCc2cccnc2)c2ccc(Nc3cncnc3)cc12 [Compound 43, (2S,4R)-1-(2-(3-acetyl-5-(pyrimidin-5-ylamino)-1H-indol-1-yl)acetyl)-4-fluoro-N-(pyridin-3-ylmethyl) pyrrolidine-2-carboxamide]	< 1
CC(=O)c1cn(CC(=O)N2C[C@H](F)C[C@H]2C(=O)Nc2ncc(Br)cn2)c2ccc(Nc3cncnc3)cc12 [Compound 44, (2S,4R)-1-(2-(3-acetyl-5-(pyrimidin-5-ylamino)-1H-indol-1-yl)acetyl)-N-(5-bromopyrimidin-2-yl)-4-fluoropyrrolidine-2-carboxamide]	< 1
CC(=O)c1cn(CC(=O)N2C[C@H](F)C[C@H]2C(=O)Nc2ccc(OCc3ccccc3)cn2)c2ccc(Nc3cncnc3)cc12 [Compound 45, (2S,4R)-1-(2-(3-acetyl-5-(pyrimidin-5-ylamino)-1H-indol-1-yl)acetyl)-N-(5-(benzyloxy)pyridin-2-yl)-4-fluoropyrrolidine-2-carboxamide]	< 1
CC(=O)c1cn(CC(=O)N2C[C@H](F)C[C@H]2C(=O)Nc2ccc3ccccc3c2)c2ccc(Nc3cncnc3)cc12 [Compound 46, (2S,4R)-1-(2-(3-acetyl-5-(pyrimidin-5-ylamino)-1H-indol-1-yl)acetyl)-4-fluoro-N-(naphthalen-2-yl)pyrrolidine-2-carboxamide]	< 1
CC(=O)c1cn(CC(=O)N2C[C@H](F)C[C@H]2C(=O)Nc2cncc(Br)n2)c2ccc(Nc3cncnc3)cc12 [Compound 47, (2S,4R)-1-(2-(3-acetyl-5-(pyrimidin-5-ylamino)-1H-indol-1-yl)acetyl)-N-(6-bromopyrazin-2-yl)-4-fluoropyrrolidine-2-carboxamide]	< 1
CC(=O)c1cn(CC(=O)N2C[C@H](F)C[C@H]2C(=O)Nc2nc(-c3ccc4c(c3)CCCC4)cs2)c2ccc(Nc3cncnc3)cc12 [Compound 50, (2S,4R)-1-(2-(3-acetyl-5-(pyrimidin-5-ylamino)-1H-indol-1-yl)acetyl)-4-fluoro-N-(4-(5,6,7,8-tetrahy-dronaphthalen-2-yl)thiazol-2-yl)pyrrolidine-2-carboxamide]	> 10
CC(=O)c1cn(CC(=O)N2C[C@H](F)C[C@H]2C(=O)Nc2noc3cc(C(F)(F)F)ccc23)c2ccc(Nc3cncnc3)cc12 [Compound 52, (2S,4R)-1-(2-(3-acetyl-5-(pyrimidin-5-ylamino)-1H-indol-1-yl)acetyl)-4-fluoro-N-(6-(trifluoromethyl)benzo[d]isoxazol-3-yl)pyrrolidine-2-carboxamide]	1 to 10
CC(=O)c1cn(CC(=O)N2C[C@H](F)C[C@H]2C(=O)Nc2ccc3ncsc3c2)c2ccc(Nc3cncnc3)cc12 [Compound 56, (2S,4R)-1-(2-(3-acetyl-5-(pyrimidin-5-ylamino)-1H-indol-1-yl)acetyl)-N-(benzo[d]thiazol-6-yl)-4-fluoropyrrolidine-2-carboxamide]	< 1
CC(=O)c1cn(CC(=O)N2C[C@H](F)C[C@H]2C(=O)Nc2cc(C)nn2-c2ccccc2F)c2ccc(Nc3cncnc3)cc12 [Compound 57, (2S,4R)-1-(2-(3-acetyl-5-(pyrimidin-5-ylamino)-1H-indol-1-yl)acetyl)-4-fluoro-N-(1-(2-fluorophenyl)-3-methyl-1H-pyrazol-5-yl)pyrrolidine-2-carboxamide]	< 1
CC(=O)c1cn(CC(=O)N2C[C@H](F)C[C@H]2C(=O)NC2CCCN(c3ccccc3Cl)C2=O)c2ccc(Nc3cncnc3)cc12 (stereo partly drawn) [Compound 58, (2S,4R)-1-(2-(3-acetyl-5-(pyrimidin-5-ylamino)-1H-indol-1-yl)acetyl)-N-(1-(2-chlorophenyl)-2-oxopiperidin-3-yl)-4-fluoropyrrolidine-2-carboxamide]	< 1
CC(=O)c1cn(CC(=O)N2C[C@H](F)C[C@H]2C(=O)NCc2ccncc2)c2ccc(Nc3cncnc3)cc12 [Compound 59, (2S,4R)-1-(2-(3-acetyl-5-(pyrimidin-5-ylamino)-1H-indol-1-yl)acetyl)-4-fluoro-N-(pyridin-4-ylmethyl) pyrrolidine-2-carboxamide]	< 1
CC(=O)c1cn(CC(=O)N2C[C@H](F)C[C@H]2C(=O)Nc2nc(-c3cccc(Cl)c3)ns2)c2ccc(Nc3cncnc3)cc12 [Compound 60, (2S,4R)-1-(2-(3-acetyl-5-(pyrimidin-5-ylamino)-1H-indol-1-yl)acetyl)-N-(3-(3-chlorophenyl)-1,2,4-thiadiazol-5-yl)-4-fluoropyrrolidine-2-carboxamide]	> 10
CC(=O)c1cn(CC(=O)N2C[C@H](F)C[C@H]2C(=O)Nc2ccccc2-c2nncn2C)c2ccc(Nc3cncnc3)cc12 [Compound 61, (2S,4R)-1-(2-(3-acetyl-5-(pyrimidin-5-ylamino)-1H-indol-1-yl)acetyl)-4-fluoro-N-(2-(4-methyl-4H-1,2,4-triazol-3-yl)phenyl) pyrrolidine-2-carboxamide]	> 10
CC(=O)c1cn(CC(=O)N2C[C@H](F)C[C@H]2C(=O)Nc2noc(-c3ccccc3Cl)n2)c2ccc(Nc3cncnc3)cc12 [Compound 62, (2S,4R)-1-(2-(3-acetyl-5-(pyrimidin-5-ylamino)-1H-indol-1-yl)acetyl)-N-(5-(2-chlorophenyl)-1,2,4-oxadiazol-3-yl)-4-fluoropyrrolidine-2-carboxamide]	< 1
CC(=O)c1cn(CC(=O)N2C[C@H](F)C[C@H]2C(=O)NC2CCCN(c3cc(C)ccc3F)C2=O)c2ccc(Nc3cncnc3)cc12 (stereo partly drawn) [Compound 63, (2S,4R)-1-(2-(3-acetyl-5-(pyrimidin-5-ylamino)-1H-indol-1-yl)acetyl)-4-fluoro-N-(1-(2-fluoro-5-methylphenyl)-2-oxopiperidin-3-yl)pyrrolidine-2-carboxamide]	< 1
CC(=O)c1cn(CC(=O)N2C[C@H](F)C[C@H]2C(=O)NC2CCN(c3ccn(C)n3)C2=O)c2ccc(Nc3cncnc3)cc12 (stereo partly drawn) [Compound 64, (2S,4R)-1-(2-(3-acetyl-5-(pyrimidin-5-ylamino)-1H-indol-1-yl)acetyl)-4-fluoro-N-(1-(1-methyl-1H-pyrazol-3-yl)-2-oxopyrrolidin-3-yl)pyrrolidine-2-carboxamide]	< 1
CC(=O)c1cn(CC(=O)N2C[C@H](F)C[C@H]2C(=O)Nc2cc(C3CC3C)no2)c2ccc(Nc3cncnc3)cc12 (stereo partly drawn) [Compound 65, (2S,4R)-1-(2-(3-acetyl-5-(pyrimidin-5-ylamino)-1H-indol-1-yl)acetyl)-4-fluoro-N-(3-(2-methylcyclopropyl)isoxazol-5-yl)pyrrolidine-2-carboxamide]	< 1
CC(=O)c1cn(CC(=O)N2C[C@H](F)C[C@H]2C(=O)Nc2n[nH]c(C)c2-c2ccccc2)c2ccc(Nc3cncnc3)cc12 [Compound 66, (2S,4R)-1-(2-(3-acetyl-5-(pyrimidin-5-ylamino)-1H-indol-1-yl)acetyl)-4-fluoro-N-(5-methyl-4-phenyl-1H-pyrazol-3-yl)pyrrolidine-2-carboxamide]	< 1
CC(=O)c1cn(CC(=O)N2C[C@H](F)C[C@H]2C(=O)Nc2nn(C)c3c2CC(C)C(=O)N3)c2ccc(Nc3cncnc3)cc12 (stereo partly shown) [Compound 67, (2S 4R)-1-(2-(3-acetyl-5-(pyrimidin-5-ylamino)-1H-indol-1-yl)acetyl)-N-(1,5-dimethyl-6-oxo-4,5,6,7-tetrahydro-1H-pyrazolo[3,4-b]pyridin-3-yl)-4-fluoropyrrolidine-2-carboxamide]	1 to 10
CC(=O)c1cn(CC(=O)N2C[C@H](F)C[C@H]2C(=O)Nc2cccc(O)n2)c2ccc(Nc3cncnc3)cc12 [Compound 68, (2S,4R)-1-(2-(3-acetyl-5-(pyrimidin-5-ylamino)-1H-indol-1-yl)acetyl)-4-fluoro-N-(6-hydroxypyridin-2-yl)pyrrolidine-2-carboxamide]	< 1
CC(=O)c1cn(CC(=O)N2C[C@H](F)C[C@H]2C(=O)N[C@@H]2CCC[C@H]2O)c2ccc(Nc3cncnc3)cc12 [Compound 69, (2S,4R)-1-(2-(3-acetyl-5-(pyrimidin-5-ylamino)-1H-indol-1-yl)acetyl)-4-fluoro-N-((1R,2R)-2-hydroxy-cyclopentyl) pyrrolidine-2-carboxamide]	1 to 10
CC(=O)c1cn(CC(=O)N2C[C@H](F)C[C@H]2C(=O)Nc2ccc(O)cn2)c2ccc(Nc3cncnc3)cc12 [Compound 70, (2S,4R)-1-(2-(3-acetyl-5-(pyrimidin-5-ylamino)-1H-indol-1-yl)acetyl)-4-fluoro-N-(5-hydroxypyridin-2-yl)pyrrolidine-2-carboxamide]	1 to 10
CC(=O)c1cn(CC(=O)N2C[C@H](F)C[C@H]2C(=O)Nc2cccc3c2NC(=O)C(C)O3)c2ccc(Nc3cncnc3)cc12 (stereo partly drawn) [Compound 71, (2S,4R)-1-(2-(3-acetyl-5-(pyrimidin-5-ylamino)-1H-indol-1-yl)acetyl)-4-fluoro-N-(2-methyl-3-oxo-3,4-dihydro-2H-benzo[b][1,4]oxazin-5-yl)pyrrolidine-2-carboxamide]	1 to 10
CC(=O)c1cn(CC(=O)N2C[C@H](F)C[C@H]2C(=O)Nc2cc(O)ccn2)c2ccc(Nc3cncnc3)cc12 [Compound 72, (2S,4R)-1-(2-(3-acetyl-5-(pyrimidin-5-ylamino)-1H-indol-1-yl)acetyl)-4-fluoro-N-(4-hydroxypyridin-2-yl)pyrrolidine-2-carboxamide]	< 1
